Active and inactive are the calls of the source. The calls are words filed in the database; no cut-off is given here.
Legend:
[1] = target: T1, Alpha glucosidase (Homo sapiens, UniProt O43451+P10253+P14410+Q2M2H8); experiment: Inhibition of alpha-glucosidase (unknown origin) using p-NPG as substrate preincubated for 15 mins followed by substrate addition for 30 mins by absorbance based analysis; type: protein assay
[2] = target: T1, Alpha glucosidase; experiment: Inhibition of alpha-glucosidase (unknown origin) using p-NPG as substrate incubated for 15 mins by spectrophotometric analysis; type: protein assay
[3] = target: T2, Tyrosine-protein phosphatase non-receptor type 1 (Homo sapiens, UniProt P18031); experiment: Inhibition of PTP1B (unknown origin) using pNPP as substrate preincubated for 10 mins followed by substrate addition for 20 mins by absorbance based analysis
T2 sequence (P18031 whole entry): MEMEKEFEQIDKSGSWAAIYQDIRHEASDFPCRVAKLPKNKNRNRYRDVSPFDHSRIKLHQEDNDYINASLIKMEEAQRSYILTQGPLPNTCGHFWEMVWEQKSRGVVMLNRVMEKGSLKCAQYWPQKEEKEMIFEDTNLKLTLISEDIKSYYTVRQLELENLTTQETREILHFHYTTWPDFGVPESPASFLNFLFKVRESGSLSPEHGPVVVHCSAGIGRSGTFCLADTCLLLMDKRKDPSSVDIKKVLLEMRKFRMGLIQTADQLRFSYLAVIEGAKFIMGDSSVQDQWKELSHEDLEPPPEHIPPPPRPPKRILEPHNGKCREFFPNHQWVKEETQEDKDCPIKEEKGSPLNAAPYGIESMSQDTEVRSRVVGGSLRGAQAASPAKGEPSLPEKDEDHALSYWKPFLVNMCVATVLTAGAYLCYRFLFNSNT

[4] = target: T1, Alpha glucosidase; experiment: Binding affinity to alpha-glucosidase (unknown origin) assessed as decreased fluorescence intensity by measuring peak 1 (lamda ex/lamda em: 315/375 nm) and peak 2 ((lamda ex/lamda em: 225/395 nm) by 3D fluorescence spectra analysis; type: protein assay
[5] = target: T1, Alpha glucosidase; experiment: Inhibition of alpha-glucosidase (unknown origin) activity assessed as disruption of secondary structure by measuring beta-sheet content at 10 uM by Circular dichroism spectra analysis (reference value: 13.9%); type: protein assay; set-up: scale not given: the % may be the effect or the level left
[6] = target: T2, Tyrosine-protein phosphatase non-receptor type 1; experiment: Inhibition of PTP1B (unknown origin)
[7] = system: Mus musculus; experiment: Reduction in blood glucose concentration in male Kunming mouse assessed as decrease in glucose AUC at 20 mg/kg preadministered for 40 mins and measured after 120 mins by sucrose loading test relative to control; type: functional, organism-based
[8] = target: T1, Alpha glucosidase; experiment: Binding affinity to alpha-glucosidase (unknown origin) assessed as fluorescence intensity at 12.5 uM by fluorescence based analysis (reference value: 313.09); type: protein assay
[9] = target: T1, Alpha glucosidase; experiment: Inhibition of alpha-glucosidase (unknown origin) activity assessed as disruption of secondary structure by measuring alpha-helix content at 10 uM by Circular dichroism spectra analysis (reference value: 40.0%); type: protein assay; set-up: scale not given: the % may be the effect or the level left
[10] = target: T1, Alpha glucosidase; experiment: Inhibition of alpha-glucosidase (unknown origin) activity assessed as disruption of secondary structure by measuring beta-turn content at 40 uM by Circular dichroism spectra analysis (reference value: 15.8%); type: protein assay; set-up: scale not given: the % may be the effect or the level left
[11] = Cytotoxicity against human HEK293 cells assessed as cell survival at 250 uM incubated for 24 hrs by MTT assay; type: toxicity, cell-based; conditions: read-out: Survival
[12] = target: T1, Alpha glucosidase; experiment: Inhibition of alpha-glucosidase (unknown origin) activity assessed as disruption of secondary structure by measuring alpha-helix content at 40 uM by Circular dichroism spectra analysis (reference value: 40.0%); type: protein assay; set-up: scale not given: the % may be the effect or the level left
[13] = target: T1, Alpha glucosidase; experiment: Inhibition of alpha-glucosidase (unknown origin) activity assessed as disruption of secondary structure by measuring random coil content at 40 uM by Circular dichroism spectra analysis (reference value: 27.1%); type: protein assay; set-up: scale not given: the % may be the effect or the level left
[14] = target: T1, Alpha glucosidase; experiment: Binding affinity to alpha-glucosidase (unknown origin) assessed as association constant by fluorescence based analysis; type: protein assay
[15] = target: T1, Alpha glucosidase; experiment: Mixed inhibition of alpha-glucosidase (unknown origin) using p-NPG as substrate assessed as increased in Km and decreased in Vmax at 0 to 20 uM incubated for 15 mins by Lineweaver-Burk double reciprocal plot analysis; type: protein assay; conditions: dose 0-20 µM
[16] = target: T1, Alpha glucosidase; experiment: Inhibition of alpha-glucosidase (unknown origin) activity assessed as disruption of secondary structure by measuring beta-turn content at 30 uM by Circular dichroism spectra analysis (reference value: 15.8%); type: protein assay; set-up: scale not given: the % may be the effect or the level left
[17] = target: T1, Alpha glucosidase; experiment: Binding affinity to alpha-glucosidase (unknown origin) assessed as collision quenching by fluorescence based analysis; type: protein assay
[18] = target: T1, Alpha glucosidase; experiment: Binding affinity to alpha-glucosidase (unknown origin) using p-NPG as substrate assessed as free inhibition constant at 0 to 20 uM incubated for 15 mins by Lineweaver-Burk double reciprocal plot analysis; type: protein assay
[19] = target: T1, Alpha glucosidase; experiment: Inhibition of alpha-glucosidase (unknown origin) activity assessed as disruption of secondary structure by measuring random coil content at 30 uM by Circular dichroism spectra analysis (reference value: 27.1%); type: protein assay; set-up: scale not given: the % may be the effect or the level left
[20] = target: T1, Alpha glucosidase; experiment: Binding affinity to alpha-glucosidase (unknown origin) assessed as Stem-Volmer quenching constant by fluorescence based analysis; type: protein assay
[21] = Inhibition of alpha-amylase (unknown origin); set-up: species or system Homo sapiens
[22] = target: T1, Alpha glucosidase; experiment: Binding affinity to alpha-glucosidase (unknown origin) by fluorescence based analysis; type: protein assay
[23] = target: T1, Alpha glucosidase; experiment: Inhibition of alpha-glucosidase (unknown origin) activity assessed as disruption of secondary structure by measuring beta-turn content at 50 uM by Circular dichroism spectra analysis (reference value: 15.8%); type: protein assay; set-up: scale not given: the % may be the effect or the level left
[24] = target: T1, Alpha glucosidase; experiment: Binding affinity to alpha-glucosidase (unknown origin) using p-NPG as substrate assessed as enzyme-substrate complex inhibition constant at 0 to 20 uM incubated for 15 mins by Lineweaver-Burk double reciprocal plot analysis; type: protein assay; conditions: dose 0-20 µM
[25] = target: T1, Alpha glucosidase; experiment: Binding affinity to alpha-glucosidase (unknown origin) assessed as quenching constant by fluorescence based analysis; type: protein assay
[26] = target: T1, Alpha glucosidase; experiment: Inhibition of alpha-glucosidase (unknown origin) activity assessed as disruption of secondary structure by measuring beta-sheet content at 40 uM by Circular dichroism spectra analysis (reference value: 13.9%); type: protein assay; set-up: scale not given: the % may be the effect or the level left
[27] = target: T1, Alpha glucosidase; experiment: Inhibition of alpha-glucosidase (unknown origin) activity assessed as disruption of secondary structure by measuring beta-sheet content at 50 uM by Circular dichroism spectra analysis (reference value: 13.9%); type: protein assay; set-up: scale not given: the % may be the effect or the level left
[28] = target: T1, Alpha glucosidase; experiment: Inhibition of alpha-glucosidase (unknown origin) activity assessed as disruption of secondary structure by measuring beta-turn content at 10 uM by Circular dichroism spectra analysis (reference value: 15.8%); type: protein assay; set-up: scale not given: the % may be the effect or the level left
[29] = target: T1, Alpha glucosidase; experiment: Mixed inhibition of alpha-glucosidase (unknown origin) using p-NPG as substrate at 0 to 20 uM incubated for 15 mins by Lineweaver-Burk double reciprocal plot analysis; type: protein assay; conditions: dose 0-20 µM
[30] = target: T1, Alpha glucosidase; experiment: Inhibition of alpha-glucosidase (unknown origin) activity assessed as disruption of secondary structure by measuring random coil content at 10 uM by Circular dichroism spectra analysis (reference value: 27.1%); type: protein assay; set-up: scale not given: the % may be the effect or the level left
[31] = target: T1, Alpha glucosidase; experiment: Inhibition of alpha-glucosidase (unknown origin) activity assessed as disruption of secondary structure by measuring alpha-helix content at 30 uM by Circular dichroism spectra analysis (reference value: 40.0%); type: protein assay; set-up: scale not given: the % may be the effect or the level left
[32] = target: T1, Alpha glucosidase; experiment: Inhibition of alpha-glucosidase (unknown origin) activity assessed as disruption of secondary structure by measuring beta-sheet content at 30 uM by Circular dichroism spectra analysis (reference value: 13.9%); type: protein assay; set-up: scale not given: the % may be the effect or the level left
[33] = system: Mus musculus; experiment: Reduction in blood glucose concentration in male Kunming mouse at 20 mg/kg preadministered for 40 mins and measured after 120 mins by sucrose loading test; type: functional, organism-based
[34] = target: T1, Alpha glucosidase; experiment: Inhibition of alpha-glucosidase (unknown origin) activity assessed as disruption of secondary structure by measuring alpha-helix content at 50 uM by Circular dichroism spectra analysis (reference value: 40.0%); type: protein assay; set-up: scale not given: the % may be the effect or the level left
[35] = target: T3, Tyrosine-protein phosphatase non-receptor type 1 (Homo sapiens) (UniProt P18031); experiment: Inhibition of PTP1B (unknown origin) in human HepG2 cells assessed as downregulation of PTP1B protein level at 50 uM at 40 to 60 degreeC incubated for 6 hrs by Western blot based Cellular thermal shift assay; type: cell-based
T3 sequence (whole entry): T2 sequence (P18031 whole entry)

[36] = target: T1, Alpha glucosidase; experiment: Inhibition of alpha-glucosidase (unknown origin) activity assessed as disruption of secondary structure by measuring random coil content at 50 uM by Circular dichroism spectra analysis (reference value: 27.1%); type: protein assay; set-up: scale not given: the % may be the effect or the level left

SMILES: O=C(/C=C/c1cccc(C(F)(F)F)c1)OCCOc1ccc2ccc(=O)oc2c1
- IC50 [1]: > 300 µM

SMILES: CCN(CC)c1ccc(/C=C/C(=O)OCCOc2ccc3ccc(=O)oc3c2)cc1
- IC50 [1]: > 300 µM

SMILES: CCCc1cc(=O)oc2cc(OCCOC(=O)/C=C/c3ccc(Cl)cc3Cl)ccc12
- IC50 [1]: > 300 µM

SMILES: CC1(C)Oc2cc3oc(=O)ccc3cc2C[C@@H]1O [DECURSINOL]
- IC50 [2]: 65.3 µM
- IC50 [3]: 58.9 µM

SMILES: Cc1cc(OCCOC(=O)/C=C/c2ccc(Cl)cc2Cl)cc2oc(=O)cc(C)c12
- IC50 [1]: 124.1 µM

SMILES: O=C(/C=C/c1ccc2ccccc2c1)OCCOc1ccc2ccc(=O)oc2c1
- IC50 [1]: > 300 µM

SMILES: Cc1c(C)c2c(C)cc(OCCOC(=O)/C=C/c3ccc(Cl)cc3Cl)cc2oc1=O
- inhibition [4]: Active; Peak 1 Reflected The Absorption Peak Of Tyrosine Residues And Tryptophan Residues And Peak 2 Was Fluorescence Feature Of Polypeptide Backbone Structure
- Activity [5]: 15.3%
- IC50 [6]: 47 µM
- IC50 [1]: 66.3 µM
- Activity [7]: Active
- Flu intensity [8]: 144
- Activity [9]: 37.1%
- Activity [10]: 17.8%
- viability at 24 h, 250 µM [11]: 81.8%
- Activity [12]: 28.3%
- Activity [13]: 35.4%
- ka [14]: 2.09 10^3L/mol
- inhibition [15]: Active
- Activity [16]: 17.1%
- K [17]: 2 10^10L/mol/s
- Ki [18]: 0.25 µM
- Activity [19]: 32.7%
- KSV [20]: 9.7 10^4L/mol
- IC50 [21]: 30.6 µM
- Activity [22]: Active; Wavelength Of Maximum Emission Peak Red Shifted From 335 Nm To 340 Nm
- Activity [23]: 18%
- Kis [24]: 0.17 µM
- Kq [25]: 9.7 10^12L/mol/s
- Activity [26]: 20.2%
- Activity [27]: 20.9%
- Activity [28]: 16.3%
- inhibition [29]: Active; Intersection In Second Quadrant Of Double Reciprocal Graph Observed; Compound Binds To Free Enzyme And Enzyme-Substrate Complex
- Activity [30]: 29.1%
- Activity [31]: 32.2%
- Activity [32]: 17.9%
- Activity [33]: Active
- Activity [34]: 27.6%
- inhibition [35]: Active
- Activity [36]: 36.3%

SMILES: C/C=C\C(=O)O[C@H]1[C@H](O)c2cc3ccc(=O)oc3cc2OC1(C)C
- IC50 [2]: 77.3 µM
- IC50 [3]: 5.4 µM

SMILES: O=C(/C=C/c1ccc(Cl)cc1Cl)OCCCOc1ccc2ccc(=O)oc2c1
- IC50 [1]: > 300 µM

SMILES: O=C(/C=C/c1cccc(F)c1)OCCOc1ccc2ccc(=O)oc2c1
- IC50 [1]: > 300 µM

SMILES: O=C(/C=C/c1ccccc1[N+](=O)[O-])OCCOc1ccc2ccc(=O)oc2c1
- IC50 [1]: 299.7 µM

SMILES: O=C(OCCOc1ccc2ccc(=O)oc2c1)c1ccc(Cl)cc1Cl
- IC50 [1]: 99 µM

SMILES: O=C(/C=C/c1ccc(Cl)cc1Cl)OCCOc1ccc2ccc(=O)oc2c1
- IC50 [1]: 116.5 µM

SMILES: COc1ccc(/C=C/C(=O)OCCOc2ccc3ccc(=O)oc3c2)cc1Br
- IC50 [1]: 286.2 µM

SMILES: O=C(/C=C/c1ccc(F)cc1)OCCOc1ccc2ccc(=O)oc2c1
- IC50 [1]: > 300 µM
